Test system: H3K4 methylated chromatin
Test: Chromatin pulldown (ChPD) with western blot detection
Format: binding
Conditions: antibodies against each of the three H3K4 methylation states; Arabidopsis seedling chromatin
Description: FIG. 8 Chromatin pulldown (ChPD) using the ASHH2 CW. […] Modified histones were visualised by western blot using antibodies as indicated. Molecular size markers are shown to the right. (B) qPCR with primers for assumed ASHH2 target genes on DNA isolated from seedling chromatin pulled down with GST-CWASHH2. ChPD with GST alone was used as a negative control. Data are shown as percent of input. The Ta3 retrotransposon was used as reference. Standard deviations are shown. (C) ChIP using antibodies against H3K4me1, H3K4me3 and H3K36me3 and primers for the same genes as in (B). Data are shown relative to Ta3. (D) ChPD from wt and ashh2 mutant seedlings as in (A) using antibodies as indicated. ChPD with GST alone was used as a negative control and histone H3 as reference.
Chromatin pull-down (ChPD) was performed using crude chromatin in ChIP dilution buffer (1.1% Triton X-100, 1.2 mM EDTA, 16.7 mM Tris-HCL pH 8, 167 mM NaCl) prepared as for ChIP (Gendrel et al., 2005) incubated with 8 μg GST-CW fusion protein and control proteins (only GST alone, or together with GST-CW-W874A and GST-WIYLD) over night. For western blotting, the pulled down chromatin was washed three times in ChIP dilution buffer, run on a 15% SDS-PAGE and blotted onto a PVDF membrane. […]

Substance: WIYLD domain of SUVR4: WIYLD domain of the Arabidopsis SET-domain protein SUVR4, GST fusion, negative control [reference compound]
- pull down of H3K4 methylated chromatin (western blot signal): did not pull down

From US20140148355A1, “COMPOSITIONS AND METHODS FOR ANALYSIS OF H3K4 METHYLATED CHROMATIN” (UNIVERSITY OF OSLO, priority 2011, published 2014)
